Experimental data reported in PubChem BioAssay AID248 (DTP/NCI, 2004).
Several values for one entry are separate records, joined by “and”; a condition that tells them apart may be missing. Equal values may be shown once. Inconclusive results and toxic doses are left out.

Tested on: L1210 leukemia ip in BDF1 mice, survival T/C
Test: NCI In Vivo Anticancer Drug Screen. Data for tumor model L1210 Leukemia (intraperitoneal) in B6D2F1 (BDF1) mice
Settings: endpoint: mean survival time, higher = longer survival
Method in brief: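 In this screen, tumor-bearing mice given compound are compared to those given vehicle, and their survival values are reported as a treated-to-control quotient.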

**Q.** With `C=CC(CN1CC1)OC(C)=O` (stereo unspecified) as the compound, how does the T/C (dose: 0.25 mg/kg/injection, schedule: Q03DX Z (ip), vehicle: saline) read?
**A.** 104 % of control

**Q.** What about the T/C (dose: 0.5 mg/kg/injection, schedule: Q01DX010 (oral), vehicle: saline) of the same compound?
**A.** 120 % of control

**Q.** And the T/C (dose: 0.5 mg/kg/injection, schedule: Q03DX Z (ip), vehicle: saline)?
**A.** 98 % of control

**Q.** And the T/C (dose: 0.95 mg/kg/injection, schedule: Q01DX Z (ip), vehicle: olive oil, sesame oil, peanut oil)?
**A.** 105 % of control

**Q.** What about the T/C (dose: 0.95 mg/kg/injection, schedule: Q01DX Z (oral), vehicle: olive oil, sesame oil, peanut oil) of the same compound?
**A.** 100 % of control

**Q.** And the T/C (dose: 1.0 mg/kg/injection, schedule: Q03DX Z (ip), vehicle: saline)?
**A.** 106 % of control

**Q.** And the T/C (dose: 1.0 mg/kg/injection, schedule: Q07DX Z (ip), vehicle: saline)?
**A.** 105 % of control

**Q.** What about the T/C (dose: 1.2 mg/kg/injection, schedule: Q01DX Z (ip), vehicle: carboxymethylcellulose (CMC)) of the same compound?
**A.** 104 % of control

**Q.** And the T/C (dose: 1.24 mg/kg/injection, schedule: Q01DX Z (ip), vehicle: carboxymethylcellulose (CMC))?
**A.** 109 % of control

**Q.** And the T/C (dose: 1.3 mg/kg/injection, schedule: Q#A X Z (ip), vehicle: other)?
**A.** 112 % of control

**Q.** What about the T/C (dose: 1.8 mg/kg/injection, schedule: Q01DX Z (ip), vehicle: carboxymethylcellulose (CMC)) of the same compound?
**A.** 93 % of control and 98 % of control

**Q.** What about the T/C (dose: 1.8 mg/kg/injection, schedule: Q01DX Z (oral), vehicle: carboxymethylcellulose (CMC)) of the same compound?
**A.** 102 % of control

**Q.** And the T/C (dose: 1.9 mg/kg/injection, schedule: Q01DX Z (ip), vehicle: olive oil, sesame oil, peanut oil)?
**A.** 116 % of control

**Q.** And the T/C (dose: 1.9 mg/kg/injection, schedule: Q01DX Z (oral), vehicle: olive oil, sesame oil, peanut oil)?
**A.** 103 % of control

**Q.** And the T/C (dose: 1.9 mg/kg/injection, schedule: Q01DX Z (oral), vehicle: other)?
**A.** 102 % of control

**Q.** And the T/C (dose: 2.0 mg/kg/injection, schedule: Q01DX006 (iv), vehicle: saline)?
**A.** 100 % of control

**Q.** And the T/C (dose: 2.0 mg/kg/injection, schedule: Q01DX010 (oral), vehicle: saline)?
**A.** 100 % of control

**Q.** What about the T/C (dose: 2.0 mg/kg/injection, schedule: Q02DX004 (im), vehicle: saline) of the same compound?
**A.** 116 % of control

**Q.** And the T/C (dose: 2.0 mg/kg/injection, schedule: Q07DX Z (ip), vehicle: saline)?
**A.** 95 % of control

**Q.** What about the T/C (dose: 2.48 mg/kg/injection, schedule: Q01DX Z (ip), vehicle: carboxymethylcellulose (CMC)) of the same compound?
**A.** 109 % of control

**Q.** What about the T/C (dose: 2.5 mg/kg/injection, schedule: Q01DX Z (oral), vehicle: saline) of the same compound?
**A.** 121 % of control

**Q.** What about the T/C (dose: 2.6 mg/kg/injection, schedule: Q01DX Z (ip), vehicle: other) of the same compound?
**A.** 117 % of control

**Q.** What about the T/C (dose: 2.6 mg/kg/injection, schedule: Q01DX Z (sc), vehicle: other) of the same compound?
**A.** 119 % of control

**Q.** And the T/C (dose: 2.7 mg/kg/injection, schedule: Q01DX Z (ip), vehicle: carboxymethylcellulose (CMC))?
**A.** 118 % of control

**Q.** What about the T/C (dose: 3.25 mg/kg/injection, schedule: Q01DX Z (ip), vehicle: saline) of the same compound?
**A.** 151 % of control

**Q.** And the T/C (dose: 3.25 mg/kg/injection, schedule: Q01DX Z (oral), vehicle: saline)?
**A.** 161 % of control

**Q.** What about the T/C (dose: 3.7 mg/kg/injection, schedule: Q01DX Z (ip), vehicle: carboxymethylcellulose (CMC)) of the same compound?
**A.** 93 % of control

**Q.** What about the T/C (dose: 3.7 mg/kg/injection, schedule: Q01DX Z (oral), vehicle: carboxymethylcellulose (CMC)) of the same compound?
**A.** 101 % of control and 90 % of control

**Q.** And the T/C (dose: 3.75 mg/kg/injection, schedule: Q01DX Z (ip), vehicle: olive oil, sesame oil, peanut oil)?
**A.** 122 % of control

**Q.** What about the T/C (dose: 3.75 mg/kg/injection, schedule: Q01DX Z (oral), vehicle: olive oil, sesame oil, peanut oil) of the same compound?
**A.** 105 % of control

**Q.** And the T/C (dose: 3.8 mg/kg/injection, schedule: Q01DX Z (ip), vehicle: olive oil, sesame oil, peanut oil)?
**A.** 90 % of control

**Q.** What about the T/C (dose: 3.8 mg/kg/injection, schedule: Q01DX Z (oral), vehicle: other) of the same compound?
**A.** 120 % of control

**Q.** And the T/C (dose: 4.0 mg/kg/injection, schedule: Q01DX006 (iv), vehicle: saline)?
**A.** 108 % of control

**Q.** What about the T/C (dose: 4.0 mg/kg/injection, schedule: Q01DX Z (sc), vehicle: other) of the same compound?
**A.** 122 % of control

**Q.** What about the T/C (dose: 4.0 mg/kg/injection, schedule: Q02DX004 (im), vehicle: saline) of the same compound?
**A.** 120 % of control

**Q.** And the T/C (dose: 4.0 mg/kg/injection, schedule: Q07DX Z (ip), vehicle: saline)?
**A.** 115 % of control

**Q.** What about the T/C (dose: 4.5 mg/kg/injection, schedule: Q#A X Z (ip), vehicle: other) of the same compound?
**A.** 102 % of control

**Q.** What about the T/C (dose: 7.5 mg/kg/injection, schedule: Q01DX009 (ip), vehicle: saline) of the same compound?
**A.** 191 % of control

**Q.** And the T/C (dose: 7.5 mg/kg/injection, schedule: Q01DX Z (ip), vehicle: carboxymethylcellulose (CMC))?
**A.** 104 % of control

**Q.** And the T/C (dose: 7.5 mg/kg/injection, schedule: Q01DX Z (ip), vehicle: saline)?
**A.** 259 % of control

**Q.** What about the T/C (dose: 7.5 mg/kg/injection, schedule: Q01DX Z (oral), vehicle: carboxymethylcellulose (CMC)) of the same compound?
**A.** 93 % of control and 96 % of control

**Q.** And the T/C (dose: 7.5 mg/kg/injection, schedule: Q01DX Z (oral), vehicle: olive oil, sesame oil, peanut oil)?
**A.** 111 % of control

**Q.** What about the T/C (dose: 7.5 mg/kg/injection, schedule: Q01DX Z (oral), vehicle: saline) of the same compound?
**A.** 150 % of control

**Q.** And the T/C (dose: 7.6 mg/kg/injection, schedule: Q01DX Z (oral), vehicle: olive oil, sesame oil, peanut oil)?
**A.** 150 % of control

**Q.** And the T/C (dose: 7.6 mg/kg/injection, schedule: Q01DX Z (oral), vehicle: other)?
**A.** 88 % of control

**Q.** What about the T/C (dose: 8.0 mg/kg/injection, schedule: Q03DX Z (ip), vehicle: other) of the same compound?
**A.** 153 % of control

**Q.** What about the T/C (dose: 8.0 mg/kg/injection, schedule: Q07DX Z (ip), vehicle: saline) of the same compound?
**A.** 121 % of control

**Q.** What about the T/C (dose: 9.0 mg/kg/injection, schedule: Q01DX Z (ip), vehicle: other) of the same compound?
**A.** 100 % of control

**Q.** What about the T/C (dose: 10.0 mg/kg/injection, schedule: Q01DX Z (oral), vehicle: saline) of the same compound?
**A.** 169 % of control

**Q.** What about the T/C (dose: 11.0 mg/kg/injection, schedule: Q01DX001 (ip), vehicle: saline) of the same compound?
**A.** 109 % of control and 118 % of control

**Q.** What about the T/C (dose: 12.0 mg/kg/injection, schedule: Q03DX Z (ip), vehicle: other) of the same compound?
**A.** 159 % of control

**Q.** What about the T/C (dose: 14.85 mg/kg/injection, schedule: Q01DX Z (ip), vehicle: carboxymethylcellulose (CMC)) of the same compound?
**A.** 96 % of control

**Q.** What about the T/C (dose: 15.0 mg/kg/injection, schedule: Q01DX009 (ip), vehicle: saline) of the same compound?
**A.** 107 % of control

**Q.** And the T/C (dose: 15.0 mg/kg/injection, schedule: Q01DX Z (ip), vehicle: carboxymethylcellulose (CMC))?
**A.** 120 % of control

**Q.** And the T/C (dose: 15.0 mg/kg/injection, schedule: Q01DX Z (ip), vehicle: saline)?
**A.** 111 % of control

**Q.** What about the T/C (dose: 15.0 mg/kg/injection, schedule: Q01DX Z (oral), vehicle: carboxymethylcellulose (CMC)) of the same compound?
**A.** 102 % of control and 117 % of control

**Q.** And the T/C (dose: 15.0 mg/kg/injection, schedule: Q01DX Z (oral), vehicle: saline)?
**A.** 108 % of control

**Q.** What about the T/C (dose: 15.1 mg/kg/injection, schedule: Q01DX Z (oral), vehicle: olive oil, sesame oil, peanut oil) of the same compound?
**A.** 104 % of control

**Q.** What about the T/C (dose: 15.1 mg/kg/injection, schedule: Q01DX Z (oral), vehicle: other) of the same compound?
**A.** 96 % of control

**Q.** What about the T/C (dose: 16.0 mg/kg/injection, schedule: Q02DX004 (im), vehicle: saline) of the same compound?
**A.** 189 % of control

**Q.** What about the T/C (dose: 17.0 mg/kg/injection, schedule: Q01DX001 (ip), vehicle: saline) of the same compound?
**A.** 116 % of control

**Q.** And the T/C (dose: 18.0 mg/kg/injection, schedule: Q03DX Z (ip), vehicle: other)?
**A.** 112 % of control

**Q.** And the T/C (dose: 18.0 mg/kg/injection, schedule: Q07DX Z (ip), vehicle: other)?
**A.** 175 % of control

**Q.** And the T/C (dose: 19.8 mg/kg/injection, schedule: Q01DX Z (ip), vehicle: carboxymethylcellulose (CMC))?
**A.** 96 % of control

**Q.** And the T/C (dose: 20.0 mg/kg/injection, schedule: Q01DX Z (oral), vehicle: saline)?
**A.** 106 % of control

**Q.** And the T/C (dose: 25.0 mg/kg/injection, schedule: Q01DX001 (ip), vehicle: saline)?
**A.** 153 % of control

**Q.** And the T/C (dose: 27.0 mg/kg/injection, schedule: Q03DX Z (ip), vehicle: other)?
**A.** 89 % of control

**Q.** And the T/C (dose: 28.0 mg/kg/injection, schedule: Q07DX Z (ip), vehicle: other)?
**A.** 158 % of control

**Q.** And the T/C (dose: 30.0 mg/kg/injection, schedule: Q01DX Z (ip), vehicle: saline)?
**A.** 105 % of control

**Q.** What about the T/C (dose: 30.0 mg/kg/injection, schedule: Q01DX Z (oral), vehicle: carboxymethylcellulose (CMC)) of the same compound?
**A.** 101 % of control and 113 % of control

**Q.** And the T/C (dose: 30.0 mg/kg/injection, schedule: Q01DX Z (oral), vehicle: saline)?
**A.** 111 % of control and 88 % of control

**Q.** And the T/C (dose: 32.0 mg/kg/injection, schedule: Q02DX004 (im), vehicle: saline)?
**A.** 97 % of control

**Q.** And the T/C (dose: 32.0 mg/kg/injection, schedule: Q07DX Z (ip), vehicle: saline)?
**A.** 210 % of control

**Q.** And the T/C (dose: 50.0 mg/kg/injection, schedule: Q01DX001 (ip), vehicle: saline)?
**A.** 94 % of control

**Q.** And the T/C (dose: 60.0 mg/kg/injection, schedule: Q01DX Z (ip), vehicle: saline)?
**A.** 116 % of control

**Q.** What about the T/C (dose: 60.0 mg/kg/injection, schedule: Q01DX Z (oral), vehicle: saline) of the same compound?
**A.** 113 % of control
